Data reported in US20030004128A1, “Formulatios of adenosine a1 agonists” (priority 1999, published 2003).

How the values were obtained:
[1] = tested on: carrageenan-induced allodynia (decrease in weight bearing on the inflamed left hind paw); assay: Carrageenan model, weight bearing on inflamed left hind paw (dual channel weight averager); type: in vivo, rat; settings: for % Weight on inflamed paw (Allodynia): Table (A), 3 h after carrageenan, 50% = no pain; for % Inhibition Allodynia: versus vehicle control
Method: (§1) Male Random Hooded rats (180-220 g) were used. The test compound or vehicle was administered 30 mins before the 2nd test compound or vehicle. The test compound and vehicles used were: (i) Compound A in 1% DMSO, 66% Peg400, 33% distilled water and (ii) nabumetone in 1% DMSO, 66% Peg400, 33% distilled water. Both test compounds were administered via the oral route. After a further 30 mins 100 ul of 2% carrageenan was injected intraplantar into the left hind paw and the animals were then returned to their cages. Three hours later behavioural testing of the carrageenan-induced decrease in weight on the inflamed left hind paw (% weight on the inflammed left paw) and associated oedema was assessed. Weight bearing was measured using the dual channel weight averager and paw oedema was assessed using a plethysmometer. The dual channel weight averager is commercially available and is described in the following abstract: Validation of the dual channel weight averager as an instrument for the measurement of inflammatory pain, N. M. Clayton et al., 1997 British Journal Pharmacol. 120, 219P
(§2) Note: Oedema is the presence of abnormally large amounts of fluid in the intercellular tissue spaces of the body and in the present example is used to provide a measure of inflammation (or anti-oedemic). Allodynia is a sensation of pain resulting from a non-injurious stimulus such as normal heat, cold or pressure on skin and in the present example the weight-bearing (allodynia) effect in used to provide a measure of analgesia.
(§3) The methodology was as described for (a) above. The test compounds and vehicles used were: (i) Compound A in 1% DMSO, 66% Peg400, 33% distilled water and (ii) Compound B in 1% DMSO, 66% Peg400, 33% distilled water. Both compounds were administered via the oral route.

[2] = tested on: carrageenan-induced oedema; assay: Carrageenan model, paw oedema (plethysmometer); type: in vivo, rat; settings: versus vehicle control
Method: as §1, §2, §3

[3] = Table (B), experiment (a), Compound A 0.4 mg/kg oral
[4] = Table (C), experiment (b), Compound A 0.4 mg/kg oral
[5] = Table (C), experiment (b), Compound B 3 mg/kg oral
[6] = Table (B), experiment (a), nabumetone 3 mg/kg oral

Q: What does the source list for `CC(C)(C)c1nnc([C@H]2O[C@@H](n3cnc4c(Nc5ccc(Cl)cc5F)ncnc43)[C@H](O)[C@@H]2O)o1` [Compound A, (2S, 3S, 4R, 5R)-2-(5 tert-butyl-[1,3,4]oxadiazol-2-yl)-5-[6-(4-chloro-2-fluoro-phenylamino)-purin-9-yl]-tetrahydro-furan-3,4-diol]?
A: % Weight on inflamed paw (Allodynia) ([1]; Compound A 0.4 mg/kg oral): 25.4 ± 2.9%; % Inhibition Allodynia [1, 3]: 17.0 ± 9.6%; % Inhibition Allodynia [1, 4]: 47.9 ± 11.1%; % Inhibition Oedema [2, 3]: −7.4 ± 5.7%; % Inhibition Oedema [2, 4]: 24.9 ± 5.5%

Q: `CCOc1ccc(-c2nn3ncccc3c2-c2ccc(S(C)(=O)=O)cc2)cc1` [Compound B, 2-(4-ethoxy-phenyl)-3-(4-methanesulfonyl-phenyl)-pyrazolo[1,5-b]pyridazine] was tested. Which “% Inhibition Allodynia” value [1, 5] did it give?
A: The value was 45.4 ± 8.9%.

Q: What about the “% Inhibition Oedema” value [2, 5] of the same compound?
A: The value was 35.8 ± 3.6%.

Q: How did the “% Weight on inflamed paw (Allodynia)” value ([1]; nabumetone 3 mg/kg oral) turn out when `COc1ccc2cc(CCC(C)=O)ccc2c1` [Nabumetone, nabumetone, reference compound] was run?
A: The value was 21.6 ± 3.6%.

Q: What about the “% Inhibition Allodynia” value [1, 6] of the same compound?
A: The value was 4.3 ± 12.2%.

Q: What about the “% Inhibition Oedema” value [2, 6] of the same compound?
A: Its value is −25.1 ± 4.7%.
